Assay results as given in PubChem BioAssay (NCI).
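Step 1: Grow cells in 96-well plates. Step 2: Expose to compound for 48 hours at 5 concentrations. Step 3: Interpolate endpoints linearly; if unreached, use highest concentration. TGI denotes the concentration required for complete inhibition of growth.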

Tests used:
Experiment in all cases: DTP human tumour cell line panel, 48 h
RXF 393 renal = test system: RXF 393 renal
HOP-62 NSCLC = test system: HOP-62 NSCLC
EKVX NSCLC = test system: EKVX NSCLC
OVCAR-8 ovarian = test system: OVCAR-8 ovarian
SK-OV-3 ovarian = test system: SK-OV-3 ovarian
MDA-MB-435 = test system: MDA-MB-435
SF-268 CNS = test system: SF-268 CNS
HCC-2998 colon = test system: HCC-2998 colon
T-47D breast = test system: T-47D breast
A549 NSCLC = test system: A549 NSCLC
UO-31 renal = test system: UO-31 renal
SK-MEL-2 melanoma = test system: SK-MEL-2 melanoma
NCI/ADR-RES ovarian = test system: NCI/ADR-RES ovarian
LOX IMVI melanoma = test system: LOX IMVI melanoma
ACHN renal = test system: ACHN renal
OVCAR-4 ovarian = test system: OVCAR-4 ovarian
NCI-H460 lung = test system: NCI-H460 lung
HL-60(TB) leukemia = test system: HL-60(TB) leukemia
K-562 leukemia = test system: K-562 leukemia
SK-MEL-5 melanoma = test system: SK-MEL-5 melanoma
A498 renal = test system: A498 renal
SF-539 CNS = test system: SF-539 CNS
CAKI-1 renal = test system: CAKI-1 renal
MCF7 breast = test system: MCF7 breast
SW-620 colon = test system: SW-620 colon
M14 melanoma = test system: M14 melanoma
HT29 colon = test system: HT29 colon
IGROV1 ovarian = test system: IGROV1 ovarian
DU-145 prostate = test system: DU-145 prostate
HCT-116 colon = test system: HCT-116 colon
HOP-92 NSCLC = test system: HOP-92 NSCLC
TK-10 renal = test system: TK-10 renal
SR leukemia = test system: SR leukemia
NCI-H226 lung = test system: NCI-H226 lung
RPMI-8226 leukemia = test system: RPMI-8226 leukemia
U251 CNS = test system: U251 CNS
MDA-MB-231 breast = test system: MDA-MB-231 breast
COLO 205 colon = test system: COLO 205 colon
HCT-15 colon = test system: HCT-15 colon
NCI-H522 lung = test system: NCI-H522 lung
786-0 renal = test system: 786-0 renal
UACC-62 melanoma = test system: UACC-62 melanoma
BT-549 breast = test system: BT-549 breast
MOLT-4 leukemia = test system: MOLT-4 leukemia
SNB-75 CNS = test system: SNB-75 CNS
SF-295 CNS = test system: SF-295 CNS
MALME-3M melanoma = test system: MALME-3M melanoma
PC-3 prostate = test system: PC-3 prostate
KM12 colon = test system: KM12 colon
NCI-H23 lung = test system: NCI-H23 lung
OVCAR-3 ovarian = test system: OVCAR-3 ovarian
SK-MEL-28 melanoma = test system: SK-MEL-28 melanoma
OVCAR-5 ovarian = test system: OVCAR-5 ovarian

`NS(=O)(=O)c1nnc(NS(=O)(=O)c2ccc([N+](=O)[O-])cc2)s1` gave a TGI (RXF 393 renal) of over 100 µM, a TGI (HOP-62 NSCLC) of over 100 µM and a TGI (EKVX NSCLC) of over 100 µM. It also gave a TGI (OVCAR-8 ovarian) of over 100 µM, a TGI (SK-OV-3 ovarian) of over 100 µM and a TGI (MDA-MB-435) of over 100 µM. The TGI (SF-268 CNS) was over 100 µM, the TGI (HCC-2998 colon) was over 100 µM and the TGI (T-47D breast) was over 100 µM. For the same compound, the TGI (A549 NSCLC) was over 100 µM, the TGI (UO-31 renal) was over 100 µM and the TGI (SK-MEL-2 melanoma) was over 100 µM. For the same compound, the TGI (NCI/ADR-RES ovarian) was over 100 µM, the TGI (LOX IMVI melanoma) was over 100 µM and the TGI (ACHN renal) was over 100 µM. It also gave a TGI (OVCAR-4 ovarian) of over 100 µM, a TGI (NCI-H460 lung) of over 100 µM and a TGI (HL-60(TB) leukemia) of over 100 µM. The TGI (K-562 leukemia) was over 100 µM, the TGI (SK-MEL-5 melanoma) was over 100 µM and the TGI (A498 renal) was over 100 µM. The TGI (SF-539 CNS) was over 100 µM, the TGI (CAKI-1 renal) was over 100 µM and the TGI (MCF7 breast) was over 100 µM. The TGI (SW-620 colon) was over 100 µM, the TGI (M14 melanoma) was over 100 µM and the TGI (HT29 colon) was over 100 µM. It also gave a TGI (IGROV1 ovarian) of over 100 µM, a TGI (DU-145 prostate) of over 100 µM and a TGI (HCT-116 colon) of over 100 µM. For the same compound, the TGI (HOP-92 NSCLC) was over 100 µM, the TGI (TK-10 renal) was over 100 µM and the TGI (SR leukemia) was over 100 µM. It also gave a TGI (NCI-H226 lung) of over 100 µM, a TGI (RPMI-8226 leukemia) of over 100 µM and a TGI (U251 CNS) of over 100 µM. For the same compound, the TGI (MDA-MB-231 breast) was over 100 µM, the TGI (COLO 205 colon) was over 100 µM and the TGI (HCT-15 colon) was over 100 µM. For the same compound, the TGI (NCI-H522 lung) was 77.5 µM, the TGI (786-0 renal) was over 100 µM and the TGI (UACC-62 melanoma) was over 100 µM. It also gave a TGI (BT-549 breast) of over 100 µM, a TGI (MOLT-4 leukemia) of over 100 µM and a TGI (SNB-75 CNS) of over 100 µM. The TGI (SF-295 CNS) was over 100 µM, the TGI (MALME-3M melanoma) was over 100 µM and the TGI (PC-3 prostate) was over 100 µM. It also gave a TGI (KM12 colon) of over 100 µM, a TGI (NCI-H23 lung) of over 100 µM and a TGI (OVCAR-3 ovarian) of over 100 µM. It also gave a TGI (SK-MEL-28 melanoma) of over 100 µM and a TGI (OVCAR-5 ovarian) of over 100 µM.
